# Square brackets hold non-standard residues; d marks the D form. Peptide text beside a SMILES is read from it. * marks the point of attachment. Biotin = O=C1N[C@H]2[C@H](CS[C@H]2CCCCC(=O)*)N1; pS = N[C@@H](COP(=O)(O)O)C(=O)O
# Columns and labels:
# [1] = test system: T98G human glioblastoma cells; assay: Peptide incorporation into T98G cells (immunocytochemistry, cell counting); type: cell-based; conditions: 6 hours; for Peptide incorporation (% of cells): T98G cells, 10 µM biotinylated peptide, Alexa-labeled avidin/streptavidin fluorescence microscopy, minimum 200 cells per experiment, mean ± S.E.M., triplicated; for Cell penetration / internalization in T98G cells (in words): 10 µM, immunocytochemistry, compared to original NFL-TBS.40-63
# Outline: (§1)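 Cells on cover slips were cultured 6 h with 10 μM biotinylated peptide, permeabilized, and stained with anti-β-tubulin plus fluorescent streptavidin. By fluorescence/confocal microscopy, ≥200 cells per experiment were scored for peptide uptake and for a normal versus destroyed microtubule network; at least three repeats.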
# [2] = test system: T98G human glioblastoma cells; assay: Disintegration of the microtubule network in T98G cells (anti-tubulin immunostaining, cell counting); type: cell-based; conditions: 6 hours; for Disintegration of MT (% of cells): T98G cells, 10 µM biotinylated peptide, anti-tubulin immunostaining, minimum 200 cells per experiment, mean ± S.E.M., triplicated; for Effect on MT network of T98G / glioma cells (in words): 10 µM, immunocytochemistry
# Outline: as §1
# glioma cells = conditions: shown previously; cited from earlier work
# Text: However, contrary to the known CPPs, which are composed mostly of arginines and lysines, the NFL-TBS.40-63 peptide contains only 2 arginine residues and no lysine. […] In addition, the cell penetrating activity appears to correlate with a particular structural pattern.
# [3] = Secondary structure estimation from CD spectra; type: physicochemical; conditions: KF/phosphate buffer pH 7.4, 20 µM, Reed's reference set
# Procedure: Circular dichroism (CD) spectra were measured in a J-810 CD spectrometer (Jasco, Japan) in step mode (bandwidth: 2 nm; interval: 0.1 nm; response time: 0.125 s). The spectra were averaged over 3 scans to increase the signal to noise ratio. To optimize the measurements, a 1 cm×0.2 cm mini-quartz cell with four windows (Hellema, Germany) was used in such a way that the spectra from 260 to 200 nm were measured with a 1 cm pathlength and those between 220 and 185 nm with 0.2 cm pathlength. After normalization for pathlength (1 cm), the superimposition of two separated spectra in the 200–220 nm region was verified and the entire spectra reconstituted. The temperature of measurement was controlled with a Peltier-effect temperature controller, and was usually 20°C. The structural stability of peptides was studied by measuring the variation in CD signal at 220 nm (bandwidth: 10 nm; interval: 1 s; response time: 0.5 s; pathlength: 1 cm) when the temperature was increased by 1°C/min from 20 to 85°C. All the CD experiments were performed with 20 µM peptide under 3 buffer conditions: pure water, 2 mM SDS and 10 mM potassium phosphate pH 7.4 with 200 mM KF.
# The secondary structures were estimated from the CD spectra with Jasco secondary structure estimation software. The spectra from […] were decomposed to α-helix, β-sheet, β-turn and random coil elements using either Reed's or Yang's reference set as reference spectrum of each element as described, [38]. We usually obtained better fits using Reed's reference.
random coil content [3],β-sheet content [3],SMILES,Peptide incorporation (% of cells) [1],Disintegration of MT (% of cells) [2],Cell penetration / internalization (in words) (glioma cells),Cell penetration / internalization in T98G cells (in words) [1],Effect on MT network of T98G / glioma cells (in words) [2]
,,"CC(C)C[C@H](NC(=O)[C@H](CO)NC(=O)[C@@H](NC(=O)[C@H](CCCNC(=N)N)NC(=O)[C@H](CCCNC(=N)N)NC(=O)[C@H](CO)NC(=O)[C@H](Cc1ccc(O)cc1)NC(=O)[C@H](CO)NC(=O)[C@H](CO)NC(=O)[C@H](CO)NC(=O)[C@H](CO)NC(=O)CNC(=O)[C@H](CO)NC(=O)CCCC[C@@H]1SC[C@@H]2NC(=O)N[C@@H]21)C(C)C)C(=O)N[C@@H](CO)C(=O)N[C@@H](CO)C(=O)N[C@@H](CO)C(=O)N[C@H](C(=O)N1CCC[C@H]1C(=O)N[C@@H](C)C(=O)N[C@@H](CO)C(=O)N[C@@H](Cc1ccc(O)cc1)C(=O)N[C@@H](CO)C(=O)N[C@@H](CO)C(=O)N[C@@H](Cc1ccc(O)cc1)C(N)=O)C(C)C [NFL-SBT, reference compound] (Biotin-SGSSSSYSRRVSLSSSVPASYSSY-NH2)",0 % of cells,32.41±0.87 % of cells,do not penetrate in cells,,
,,"CC(C)C[C@H](NC(=O)[C@H](CO)NC(=O)CCCC[C@@H]1SC[C@@H]2NC(=O)N[C@@H]21)C(=O)NCC(=O)N[C@@H](CO)C(=O)N1CCC[C@H]1C(=O)N[C@@H](CO)C(=O)N[C@@H](CO)C(=O)N[C@@H](CO)C(=O)N[C@H](C(=O)N[C@@H](CCCNC(=N)N)C(=O)N[C@@H](C)C(=O)N[C@@H](CO)C(=O)N[C@@H](Cc1ccc(O)cc1)C(=O)N[C@@H](CO)C(=O)N[C@@H](CO)C(=O)N[C@@H](CO)C(=O)N[C@@H](CCCNC(=N)N)C(=O)N[C@@H](CO)C(=O)N[C@@H](Cc1ccc(O)cc1)C(=O)N[C@H](C(=O)N[C@@H](Cc1ccc(O)cc1)C(=O)N[C@@H](CO)C(=O)N[C@@H](CO)C(=O)N[C@@H](CO)C(N)=O)C(C)C)C(C)C [NFL-SCR, reference compound] (Biotin-SLGSPSSSVRASYSSSRSYVYSSS-NH2)",,18.18±3.2 % of cells,do not penetrate in cells,,
53%,40%,CC(C)C[C@H](NC(=O)[C@H](CO)NC(=O)[C@H](CO)NC(=O)[C@H](CO)NC(=O)[C@@H](NC(=O)[C@@H]1CCCN1C(=O)[C@H](C)NC(=O)[C@H](CO)NC(=O)[C@H](Cc1ccc(O)cc1)NC(=O)[C@H](CO)NC(=O)[C@H](CO)NC(=O)[C@H](Cc1ccc(O)cc1)NC(=O)CCCC[C@@H]1SC[C@@H]2NC(=O)N[C@@H]21)C(C)C)C(=O)N[C@@H](CO)C(=O)N[C@H](C(=O)N[C@@H](CCCNC(=N)N)C(=O)N[C@@H](CCCNC(=N)N)C(=O)N[C@@H](COP(=O)(O)O)C(=O)N[C@@H](Cc1ccc(O)cc1)C(=O)N[C@@H](CO)C(=O)N[C@@H](CO)C(=O)N[C@@H](CO)C(=O)N[C@@H](CO)C(=O)NCC(=O)N[C@@H](CO)C(N)=O)C(C)C [Ser17SerP] (Biotin-YSSYSAPVSSSLSVRR[pS]YSSSSGS-NH2),32.8±8.7 % of cells,22.9±1.3 % of cells,,decreased internalization,not altered
60%,34%,CC(C)C[C@H](NC(=O)[C@H](CO)NC(=O)[C@H](CO)NC(=O)[C@H](CO)NC(=O)[C@@H](NC(=O)[C@@H]1CCCN1C(=O)[C@H](C)NC(=O)[C@H](CO)NC(=O)[C@H](Cc1ccc(O)cc1)NC(=O)[C@H](CO)NC(=O)[C@H](CO)NC(=O)[C@H](Cc1ccc(O)cc1)NC(=O)CCCC[C@@H]1SC[C@@H]2NC(=O)N[C@@H]21)C(C)C)C(=O)N[C@@H](CO)C(=O)N[C@H](C(=O)N[C@@H](CCCNC(=N)N)C(=O)N[C@@H](CCCNC(=N)N)C(=O)N[C@@H](CO)C(=O)N[C@@H](Cc1ccc(O)cc1)C(=O)N[C@@H](COP(=O)(O)O)C(=O)N[C@@H](CO)C(=O)N[C@@H](CO)C(=O)N[C@@H](CO)C(=O)NCC(=O)N[C@@H](CO)C(N)=O)C(C)C [Ser19SerP] (Biotin-YSSYSAPVSSSLSVRRSY[pS]SSSGS-NH2),27.3±12.1 % of cells,19.4±2.1 % of cells,,decreased internalization,not altered
,,CC(C)C[C@H](NC(=O)[C@H](CO)NC(=O)[C@H](CO)NC(=O)[C@H](CO)NC(=O)[C@@H](NC(=O)[C@@H]1CCCN1C(=O)[C@H](C)NC(=O)[C@H](CO)NC(=O)[C@H](Cc1ccc(O)cc1)NC(=O)[C@H](CO)NC(=O)[C@H](CO)NC(=O)[C@H](Cc1ccc(O)cc1)NC(=O)CCCC[C@@H]1SC[C@@H]2NC(=O)N[C@@H]21)C(C)C)C(=O)N[C@@H](CO)C(=O)N[C@@H](C)C(=O)N[C@@H](CCCNC(=N)N)C(=O)N[C@@H](CCCNC(=N)N)C(=O)N[C@@H](CO)C(=O)N[C@@H](Cc1ccc(O)cc1)C(=O)N[C@@H](CO)C(=O)N[C@@H](CO)C(=O)N[C@@H](CO)C(=O)N[C@@H](CO)C(=O)NCC(=O)N[C@@H](CO)C(N)=O [Val14Ala] (Biotin-YSSYSAPVSSSLSARRSYSSSSGS-NH2),0 % of cells,13.8±3.9 % of cells,,fails to enter in cells,does not affect the MT network
,,CC(C)C[C@H](NC(=O)[C@H](CO)NC(=O)[C@H](CC(C)C)NC(=O)[C@H](CO)NC(=O)[C@H](CO)NC(=O)[C@H](CO)NC(=O)[C@@H](NC(=O)[C@@H]1CCCN1C(=O)[C@H](C)NC(=O)[C@H](CO)NC(=O)[C@H](Cc1ccc(O)cc1)NC(=O)[C@H](CO)NC(=O)[C@H](CO)NC(=O)[C@H](Cc1ccc(O)cc1)NC(=O)CCCC[C@@H]1SC[C@@H]2NC(=O)N[C@@H]21)C(C)C)C(=O)N[C@@H](CCCNC(=N)N)C(=O)N[C@@H](CCCNC(=N)N)C(=O)N[C@@H](CO)C(=O)N[C@@H](Cc1ccc(O)cc1)C(=O)N[C@@H](CO)C(=O)N[C@@H](CO)C(=O)N[C@@H](CO)C(=O)N[C@@H](CO)C(=O)NCC(=O)N[C@@H](CO)C(N)=O [Val14Leu] (Biotin-YSSYSAPVSSSLSLRRSYSSSSGS-NH2),44.2±2.2 % of cells,39.2±2.4 % of cells,,,

# Source: PMC3494675, “Structure-Function Analysis of the Glioma Targeting NFL-TBS.40-63 Peptide Corresponding to the Tubulin-Binding Site on the Light Neurofilament Subunit” (PLoS ONE, 2012)
